Experimental data reported in paper PMC6934184, “Selective DNA-PKcs inhibition extends the therapeutic index of localized radiotherapy and chemotherapy” (The Journal of Clinical Investigation, 2019).

Target: T1, SRC (Homo sapiens, UniProt P12931)
T1 construct: purchased Thermo Fisher Scientific (Life Technologies) SelectScreen
Assay: SelectScreen Z'LYTE
Type: biochemical
Method in brief: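 SelectScreen broad panel; activity (Z'LYTE, Adapta) plus binding formats. ATP: Km app for CSF1R Z'LYTE; 10 for CAMK1 Adapta. Readout = % per kinase.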

T1 sequence (P12931 whole entry): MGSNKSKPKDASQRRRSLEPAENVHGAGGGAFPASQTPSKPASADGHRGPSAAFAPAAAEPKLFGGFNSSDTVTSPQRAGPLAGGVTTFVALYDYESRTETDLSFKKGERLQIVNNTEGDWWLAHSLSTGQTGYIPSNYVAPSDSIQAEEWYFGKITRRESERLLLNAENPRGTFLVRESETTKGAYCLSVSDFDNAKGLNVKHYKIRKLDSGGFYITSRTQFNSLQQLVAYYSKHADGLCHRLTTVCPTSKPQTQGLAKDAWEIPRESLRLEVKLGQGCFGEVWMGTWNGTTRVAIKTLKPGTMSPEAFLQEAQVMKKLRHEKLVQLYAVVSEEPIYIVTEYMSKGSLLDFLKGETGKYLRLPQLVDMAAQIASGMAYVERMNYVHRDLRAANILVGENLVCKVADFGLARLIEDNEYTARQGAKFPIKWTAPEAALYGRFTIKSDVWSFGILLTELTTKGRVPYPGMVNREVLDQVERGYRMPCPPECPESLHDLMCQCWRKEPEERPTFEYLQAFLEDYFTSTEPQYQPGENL

Structure (SMILES): CN(C(=O)CN1CCOCC1)c1ccc2sc3c(-c4cccc5c(=O)cc(N6CC7CCC(C6)O7)oc45)cccc3c2c1 [NU5455]
- inhibition at 1 µM: 9.5%
